Experimental data: US20190307843A1, “SINGLE DOSE METHODS FOR PREVENTING AND TREATING FUNGAL INFECTIONS” (Cidara Therapeutics, Inc., priority 2016, published 2019)
“And” between values parts separate entries of the source, which are not always exact repeats. Identical values can stand only once. Starred links: 1 amine or outer side, 2 acyl side, 3 side chain; linkers in the order of their positions; H or OH if unused. Positions of bridges follow the written chain, without caps; N, C: chain ends. Non-standard residues stand in square brackets, D forms with d. Residues, ends and D or L forms follow the SMILES beside them. *: point of attachment. hTyr(3S-OH,4S-OH,3'-OSO3H) = N[C@H](C(=O)O)[C@H](O)[C@@H](O)c1ccc(O)c(OS(=O)(=O)O)c1; Orn(4R-OH,5R-OH) = O=C([C@H](C[C@@H](O)[C@@H](O)N[*:3])N[*:1])[*:2]; Pro(3S-OH,4S-Me) = C[C@H]1CN[C@H](C(=O)O)[C@H]1O; X1 = CCCCCOc1ccc(-c2cc(-c3ccc(C(=O)*)cc3)no2)cc1; Gln(3R-OH) = NC(=O)C[C@@H](O)[C@H](N)C(=O)O; Hyp = O=C(O)[C@@H]1C[C@@H](O)CN1

How the values were obtained:
A. fumigatus AF293 [1] = assay: Murine model of pulmonary aspergillosis (Example 19), terminal lung burden; type: in vivo, Aspergillus fumigatus; conditions: Micafungin 5 mg/kg IP Day −1
Description: A secondary endpoint for the study was terminal lung tissue burden. Immediately following confirmation of death, carcasses were frozen at −20° C. prior to tissue dissection and processing. The frozen carcasses were thawed at room temperature, the lungs removed and placed into pre-weighed bead-beating tubes containing 2 mL of PBS and subjected to mechanical disruption. Organ homogenates were diluted further in PBS and quantitatively cultured for A. fumigatus onto SABC and incubated at 30° C. for 24-48 hours.
2. Lung tissue burden data were analysed using the non-parametric Kruskal-Wallis test and if this was statistically significant all pairwise comparisons were analyzed (Conover-Inman).

A. fumigatus AF293 [2] = assay: Murine model of pulmonary aspergillosis (Example 19), survival
A. fumigatus AF293 [3] = assay: Pulmonary aspergillosis, prophylaxis, neutropenic ICR mice (Examples 17, 18), survival; type: in vivo, Aspergillus fumigatus; conditions: micafungin 5 mg/kg
Description: Intranasal infection with A. fumigatus AF293 (10^5 CFU/mouse) on Day 0. Prophylaxis CD101 as a single dose (IP; 5, 10, 20 mg/kg) or posaconazole (PO; 2 and 10 mg/kg) 1 day prior to infection. Survival monitored for 10 days.
Intranasal challenge with A. fumigatus AF293 (10^5 CFU/mouse) was initiated on Day 0 and prophylaxis with CD101 as a single dose (IP; 5, 10, 20 mg/kg) or posaconazole (PO; 2 and 10 mg/kg) was started 1 day prior to infection. Survival was monitored for 10 days.

Candida albicans SC5314 = conditions: 24 hr
[4] = test system: A. fumigatus strain AF293; assay: Murine model of pulmonary aspergillosis (Example 13), survival
C. auris = assay: Murine model of disseminated candidiasis, C. auris infection, kidney CFU and survival; type: in vivo, Candida auris
[5] = test system: C. albicans SC-5314 biofilms; assay: Adhesion phase biofilms (prevention), XTT metabolic activity and CSLM; type: cell-based, Candida albicans
[6] = test system: C. albicans SC-5314 biofilms; assay: Mature phase biofilms (treatment), XTT metabolic activity and CSLM; type: cell-based, Candida albicans
[7] = Micafungin 5 mg/kg IP once, Day 1 pre-infection
[8] = fluconazole 1 and 4 μg/ml, 24 h

Row | SMILES | Group Geometric mean (lung burden) (A. fumigatus AF293 [1]) | Log10 Group Geometric mean (lung burden) (A. fumigatus AF293 [1]) [CFU/g] | Log10 reduction from vehicle control (A. fumigatus AF293 [1]) [CFU/g] | survival time post infection, range (A. fumigatus AF293 [2]; Micafungin 5 mg/kg IP once) [h] | Mean Survival (A. fumigatus AF293 [2]; [7]) | Median Survival (A. fumigatus AF293 [2]; [7]) | survival (A. fumigatus AF293 [2]; micafungin 5 mg/kg once one day pre-infection) | survival (A. fumigatus AF293 [3]) | CFU clearance (Candida albicans SC5314; micafungin IP 10 mg/kg) | CFU reduction (Candida albicans SC5314; micafungin IP 1, 3, 10 mg/kg) | Mean Survival ([4]; Micafungin 2 mg/kg IP Day 0) [h] | Median Survival ([4]; Micafungin 2 mg/kg IP Day 0) [h] | Mean Survival ([4]; Micafungin 2 mg/kg IP Day −1) [h] | Median Survival ([4]; Micafungin 2 mg/kg IP Day −1) [h] | percent survival at the end of the study (C. auris) [%] | thickness of biofilms ([5]; fluconazole) | biofilm formation by metabolic activity (XTT) [5, 8] | thickness of biofilms ([6]; fluconazole) | effect on mature biofilms [6, 8]
1 | CCCCCOc1ccc(-c2cc(-c3ccc(C(=O)N[C@H]4C[C@@H](O)[C@@H](O)NC(=O)[C@@H]5[C@@H](O)[C@@H](C)CN5C(=O)[C@H]([C@H](O)CC(N)=O)NC(=O)[C@H]([C@H](O)[C@@H](O)c5ccc(O)c(OS(=O)(=O)O)c5)NC(=O)[C@@H]5C[C@@H](O)CN5C(=O)[C@H]([C@@H](C)O)NC4=O)cc3)no2)cc1 [Micafungin, micafungin] (X1-[Orn(4R-OH,5R-OH)]T[Hyp][hTyr(3S-OH,4S-OH,3'-OSO3H)][Gln(3R-OH)][Pro(3S-OH,4S-Me)]; lactam 1-C) | 6.61 × 10^3 CFU/g | 3.82 | 0.35 | 71 to 162 | 92 h and 92.0 h | 80 h and 80.0 h | did not show any improvement in survival | no survivors | complete clearance was only observed with the 10 mg/kg dose | good dose response in CFU reduction | 75.3 | 73.3 | 64.7 | 64.7 | – | – | – | – | –
2 | OC(Cn1cncn1)(Cn1cncn1)c1ccc(F)cc1F [fluconazole] | – | – | – | – | – | – | – | – | – | – | – | – | – | – | 0 | no effect on biofilm thickness | did not inhibit biofilm formation | no effect | did not affect Candida biofilms
